{"source": "patent US20120283334A1", "about": "“Treatment of Viral Infections” (Biocopea, Ltd., priority 2009, published 2012)", "key": {"Con A stimulated cells [1]": {"tested_on": "Con A stimulated cells", "settings": "for Percentage cell survival compared to 100% untreated cells under Con A stimulation: human"}, "Con A stimulated cells [2]": {"tested_on": "Con A stimulated cells", "assay": "Percentage cell survival of Con A stimulated cells", "settings": "for Percentage cell survival compared to 100% untreated cells under Con A stimulation: compound only (no Con A)"}}, "note": "Read-outs that look alike come from different tables or passages of the source."}
{"compound": "CC(NCCc1ccc(O)cc1)C(O)c1ccc(O)cc1", "note": "(centres unmarked) [BC1023, ritodrine]", "values": [{"measurement": "percentage cell survival compared to the untreated controls", "setting": "Con A stimulated cells [1]", "value": "higher"}, {"measurement": "Percentage cell survival compared to 100% untreated cells under Con A stimulation", "setting": "Con A stimulated cells [1]; 1 μM", "value": 78.69, "unit": "%"}, {"measurement": "Percentage cell survival compared to 100% untreated cells under Con A stimulation", "setting": "Con A stimulated cells [1]; 10 μM", "value": 75.25, "unit": "%"}, {"measurement": "Percentage cell survival compared to 100% untreated cells under Con A stimulation", "setting": "Con A stimulated cells [1]; 100 μM", "value": 72.56, "unit": "%"}]}
{"compound": "CC(CCc1ccc(O)cc1)NCCc1ccc(O)c(O)c1", "note": "(centres unmarked) [BC1021, dobutamine]", "values": [{"measurement": "Percentage cell survival compared to 100% untreated cells under Con A stimulation", "setting": "Con A stimulated cells [2]; 1 μM", "value": 76.89, "unit": "%"}, {"measurement": "Percentage cell survival compared to 100% untreated cells under Con A stimulation", "setting": "Con A stimulated cells [2]; 10 μM", "value": 69.80, "unit": "%"}, {"measurement": "Percentage cell survival compared to 100% untreated cells under Con A stimulation", "setting": "Con A stimulated cells [2]; 100 μM", "value": 44.95, "unit": "%"}, {"measurement": "percentage cell survival compared to the untreated controls", "setting": "Con A stimulated cells [2]; text summary of Table 5, all doses", "value": "higher"}]}
